The record followed here is patent US20220274927A1, “MEMBRANE-ACTIVE ANTI-BACTERIAL COMPOUNDS AND USES THEREOF” (Trustees of Dartmouth College, priority 2019, published 2022).

The structures appear in SMILES notation. Values after ≈ are worked out from the molar mass of the structure shown.

In general, MIC refers to the lowest concentration that inhibits growth of the organism.

One assay has as its system methicillin-resistant S. aureus (FPR3757). Briefly: MIC against clinical MRSA strain FPR3757 in Mueller-Hinton broth (CLSI). As to conditions: MRSA FPR3757 MIC ratio. It is filed as cell-based, Staphylococcus aureus. An excerpt: The first set of compounds evaluated were analogs at the C-7 and C-8 positions of the initial quinolone hit DNAC-2 since the other HTS hits identified (data not shown) were substituted at these positions (Table 1). Applicants first explored modification at the C-7 position with a small series of electron-donating and withdrawing substituents. […] However, analogs containing electron donating groups at C-7 including ethyl 7, benzyloxy 8, methoxy 9 and methylthio 10 are weakly active displaying MICs of 320-640 μg/mL indicating electron-donating substituents at C-7 are poorly tolerated. […] The C-8 position was evaluated with trifluoromethyl 4 and trifluoromethoxy 5 containing the optimal C-7 substituents. Both 4 and 5 are equipotent to the corresponding C-7 analogs 2 and 3 indicating some flexibility of the quinolone scaffold.
Consider `FC(F)(F)c1ccc2c(Nc3cc(Cl)ccn3)cc(C(F)(F)F)nc2c1` [Compound 48], for which the “fold loss of potency (MIC) relative to the comparator” value was found to be 8 fold.
Still for that read-out and setting: then `FC(F)(F)c1ccc2c(Nc3ccc(Cl)c(Cl)c3)nc(C(F)(F)F)nc2c1` [Compound 89], with 8 fold; and `FC(F)(F)c1ccc(Nc2nc(C(F)(F)F)nc3cc(C(F)(F)F)ccc23)nc1` [Compound 91], with 8 fold.
Consider `FC(F)(F)c1cccc(Nc2cc(C(F)(F)F)nc3cc(C(F)(F)F)ccc23)c1` [Compound 26], for which the “fold increase in potency (MIC) relative to the comparator” value is reported as 16 fold.

Staying with this assay, now noted: MRSA clinical strain FPR3757, Mueller-Hinton broth, CLSI guidelines, complete inhibition of observable growth.
`FC(F)(F)c1ccc2c(Nc3ccncc3)cc(C(F)(F)F)nc2c1` [Compound 53] gave an MIC above 32 µg/mL.
Take `FC(F)(F)c1ccc(Nc2cc(N3CCNCC3)nc3cc(C(F)(F)F)ccc23)nc1` [Compound 102]: the minimum inhibitory concentration (MIC) was in the range of 0.5 to 1 µg/mL.
The same measure, in the same setting: then `FC(F)(F)c1ccc2c(Nc3ccc(Cl)c(Cl)c3)nc(C(F)(F)F)nc2c1` [Compound 89], with 0.5 µg/mL (≈ 1.17 µM); and `O=c1cc(C(F)(F)F)[nH]c2cc(C(F)(F)F)cc(Nc3cccc4[nH]ncc34)c12` [Compound 116], with 2 µg/mL (≈ 4.85 µM); and `FC(F)(F)c1ccc2c(NC3CCCCC3)cc(C(F)(F)F)nc2c1` [Compound 57], with above 16 µg/mL.
Same read-out and setting: then `FC(F)(F)c1ccc2c(Nc3cccc(Cl)c3)cc(C(F)(F)F)nc2c1` [Compound 16], with 0.25 µg/mL (≈ 0.64 µM); and `FC(F)(F)c1ccc2c(Nc3ccc4c(c3)OCO4)cc(C(F)(F)F)nc2c1` [Compound 28], with above 4 µg/mL; and `OC1CCCN(c2cc(C(F)(F)F)nc3cc(C(F)(F)F)ccc23)C1` (centres unmarked) [Compound 58], with above 32 µg/mL.
Turning to `CN(C)S(=O)(=O)c1ccc(Nc2cc(C(F)(F)F)cc3[nH]c(C(F)(F)F)cc(=O)c23)nc1` [Compound 115], the minimal inhibitory concentration (MIC) turned out to be 2 µg/mL (≈ 4.16 µM).
Regarding `O=c1cc(C(F)(F)F)[nH]c2cc(C(F)(F)F)cc(-c3ccc(C(F)(F)F)nn3)c12` [Compound 114], the minimum inhibitory concentration (MIC) came out at 1 µg/mL (≈ 2.34 µM).
`O[C@H]1C[C@H]2CC[C@@H](C1)C2Nc1cc(C(F)(F)F)nc2cc(C(F)(F)F)ccc12` (some centres unmarked) [Compound 65] yielded an MIC above 32 µg/mL.

Still in this assay, the particulars now being: Staphylococcus aureus, MRSA, MRSA clinical strain FPR3757, Mueller-Hinton broth, CLSI guidelines, complete inhibition of observable growth.
Compound `FC(F)(F)c1ccc2c(Nc3ccncc3)cc(C(F)(F)F)nc2c1` [Compound 53] came in with an MIC above 32 µg/mL.
On the same count and under the same terms, the same measure for `FC(F)(F)c1ccc2c(NC3CCCCC3)cc(C(F)(F)F)nc2c1` [Compound 57]: above 32 µg/mL.

Still in this assay, the particulars now being: Staphylococcus aureus, MRSA, MRSA clinical strain FPR3757, Mueller-Hinton broth, CLSI guidelines, complete inhibition of observable growth; read-out: MIC.
As for `COc1ccc2c(Nc3cccc(OC(F)(F)F)c3)cc(C(F)(F)F)nc2c1` [Compound 37], the minimum inhibitory concentration (MIC) is above 32 µg/mL.
Still for that read-out and setting: then `FC(F)(F)c1ccc2c(Nc3cccc(I)c3)cc(C(F)(F)F)nc2c1` [Compound 20], with 0.25 µg/mL (≈ 0.518 µM); and `FC(F)(F)Oc1ccc2c(Nc3ccc(Cl)c(Cl)c3)cc(C(F)(F)F)nc2c1` [Compound 32], with 0.5 to 1 µg/mL (≈ 1.13 to 2.27 µM).
Still for that read-out and setting: the same measure for `FC(F)(F)c1ccc2c(Nc3cc(Cl)ccn3)cc(C(F)(F)F)nc2c1` [Compound 48]: 2 µg/mL (≈ 5.11 µM); for `O=c1cc(C(F)(F)F)[nH]c2cc(C(F)(F)F)cc(Nc3cccc4[nH]ncc34)c12` [Compound 116]: 1 to 2 µg/mL (≈ 2.43 to 4.85 µM).
Same read-out and setting: then `CC(C)c1ccccc1Nc1cc(C(F)(F)F)nc2cc(C(F)(F)F)ccc12` [Compound 12], with 320 µg/mL (≈ 803 µM).
For `FC(F)(F)c1ccc2c(Nc3cccc(Cl)c3)cc(C(F)(F)F)nc2c1` [Compound 16], the minimum inhibitory concentration (MIC) fell in the range of 0.125 to 0.25 µg/mL (≈ 0.32 to 0.64 µM).
Same read-out and setting: then `O=c1cc(C(F)(F)F)[nH]c2cc(C(F)(F)F)cc(N3CCOCC3)c12` [Compound 118], with above 32 µg/mL; and `FC(F)(F)c1ccc2c(Nc3ccc(C(F)(F)F)nc3)cc(C(F)(F)F)nc2c1` [Compound 49], with above 32 µg/mL.
The same measure, in the same setting: the same measure for `OC1CCCN(c2cc(C(F)(F)F)nc3cc(C(F)(F)F)ccc23)C1` (centres unmarked) [Compound 58]: above 32 µg/mL; for `O=c1cc(C(F)(F)F)[nH]c2cc(Nc3ccc(F)c(F)c3)cc(C(F)(F)F)c12` [Compound 120]: 4 µg/mL (≈ 9.8 µM); for `FC(F)(F)c1ccc(Nc2cc(C(F)(F)F)nc3c(C(F)(F)F)cccc23)nc1` [Compound 47]: 0.5 µg/mL (≈ 1.18 µM).
Take `FC(F)(F)c1cccc(Nc2cc(C(F)(F)F)nc3cc(C(F)(F)F)ccc23)c1` [Compound 26]: the MIC is 0.25 µg/mL (≈ 0.589 µM).
The same measure, in the same setting: the same measure for `O=c1cc(C(F)(F)F)[nH]c2cc(Nc3ccc(Cl)c(Cl)c3)cc(C(F)(F)F)c12` [Compound 119]: 1 µg/mL (≈ 2.27 µM); for `COc1ccc2c(Nc3ccc(Cl)c(Cl)c3)cc(C(F)(F)F)nc2c1` [Compound 35]: 2 µg/mL (≈ 5.17 µM); for `FC(F)(F)Oc1cccc2c(Nc3ccc(C(F)(F)F)cn3)cc(C(F)(F)F)nc12` [Compound 44]: 1 µg/mL (≈ 2.27 µM).
In the case of `O=c1cc(C(F)(F)F)[nH]c2cc(C(F)(F)F)cc(-c3ccc(C(F)(F)F)nn3)c12` [Compound 114], the MIC was in the range of 1 to 2 µg/mL (≈ 2.34 to 4.68 µM).
Turning to `O[C@H]1C[C@H]2CC[C@@H](C1)C2Nc1cc(C(F)(F)F)nc2cc(C(F)(F)F)ccc12` (some centres unmarked) [Compound 65], the MIC was above 32 µg/mL.
